Assay results published in PMC8197800, “Structure and Dynamics of Meprin β in Complex with a Hydroxamate-Based Inhibitor” (International Journal of Molecular Sciences, 2021).
Like-named read-outs stand apart in the source and are kept apart here.

Columns and labels:
Meprin β = biological target: T1, Meprin β (Homo sapiens, UniProt Q16820); experiment: Meprin β enzyme inhibition (cleavage of quenched fluorogenic peptide Abz-YVAEAPK(Dnp)G-OH); assay type: biochemical
T1 construct: For the purified, truncated variant Meprin β^62–595 (MβΔC), despite reduced protein yield, identical specific activity was detected; His-tag (N, cleaved yes); made in house; host or cells: Pichia pastoris
T1 sequence (Q16820 62-595): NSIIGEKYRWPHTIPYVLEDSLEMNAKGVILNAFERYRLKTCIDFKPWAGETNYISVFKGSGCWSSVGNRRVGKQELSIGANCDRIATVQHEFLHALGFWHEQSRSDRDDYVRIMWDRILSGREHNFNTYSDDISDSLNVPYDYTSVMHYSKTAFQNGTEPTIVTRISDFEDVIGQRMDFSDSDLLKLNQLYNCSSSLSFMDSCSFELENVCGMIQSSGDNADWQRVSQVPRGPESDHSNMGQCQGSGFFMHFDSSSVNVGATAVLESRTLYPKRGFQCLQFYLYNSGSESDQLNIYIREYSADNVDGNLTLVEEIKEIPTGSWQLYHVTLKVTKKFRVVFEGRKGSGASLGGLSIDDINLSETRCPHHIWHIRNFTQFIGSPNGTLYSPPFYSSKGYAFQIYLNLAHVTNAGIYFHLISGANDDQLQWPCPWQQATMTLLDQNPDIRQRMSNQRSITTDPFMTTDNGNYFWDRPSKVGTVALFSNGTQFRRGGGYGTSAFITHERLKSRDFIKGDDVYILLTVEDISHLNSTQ
Method: The enzymatic activity of Meprin β was determined, essentially as described previously. The assay is based on the change of fluorescence intensity due to cleavage of the internally quenched peptide substrate Abz-YVAEAPK(Dnp)G-OH (λex 340 nm/λem 420 nm). For activity determination during expression and purification, the proenzyme was activated by trypsin. For activation, 100 µL of cleavage buffer (50 mM Tris/HCl, 10 mM CaCl2, pH 7.5), 50 µL Meprin β solution and 50 µL bovine trypsin 500 µg/mL (Sigma Aldrich) were mixed and incubated for 15 min at 30 °C. An aliquot of the reaction (50 µL) was mixed again with 150 µL assay buffer consisting of 40 mM Tris/HCl, pH 8.0, 0.05% Brij 30. The reaction was initiated by addition of 50 µL of substrate (final concentration 50 µM), which was dissolved in assay buffer.

Meprin β62–595 (MβΔC) [1] = biological target: T2, Meprin β62–595 (MβΔC) (Homo sapiens, UniProt Q16820); experiment: Isothermal titration calorimetry (ITC) of inhibitors to Meprin β62–595 (MβΔC); assay type: binding; design: H (one-site fit) / S (one-site fit): unit not given here; conditions: for H (one-site fit) / K (association constant, one-site fit) / N (stoichiometry, one-site fit) / S (one-site fit): ITC fit; for Kd / ΔH (binding enthalpy) / −ΔS * T (binding entropy term): ITC, 30 °C
T2 construct: His-tag (N, cleaved yes); α-mating factor secretion signal (S. cerevisiae) (N, cleaved yes); made in house; host or cells: Pichia pastoris X33
T2 sequence (Q16820 62-595): T1 sequence (Q16820 62-595)
Method: The binding affinity (KD), binding enthalpy (ΔH), binding entropy (ΔS) and stoichiometry (N) of different Meprin β inhibitors to Meprin β^62–595 (MβΔC) were determined by isothermal titration of the inhibitors to the enzyme at 30 °C using a VP-ITC microcalorimeter (MicroCal). Prior to the binding analysis, the purified Meprin β^62–595 (MβΔC) was dialyzed extensively against 40 mM Tris pH 8.0 (±150 mM NaCl). The inhibitors were diluted 1:50 from DMSO stock solutions into dialysis buffer and 2% (v/v) DMSO were added to the dialyzed enzyme solution immediately before starting the titration experiment. The instrument was operated according to the manufacturer’s instructions and the data analyzed using MicroCal ORIGIN software. The obtained binding heat was corrected by the dilution heat of the ligand, which was recorded by titration of the inhibitor (1:50 diluted) into the dialysis buffer containing 2% (v/v) DMSO. The corrected data were evaluated by a single-site binding model calculating N, KD, ΔH and ΔS.
1. MWT-S-270 (-NaCl) 2. MWT-S-270 (+ NaCl)
Figure S7: ITC binding curves for the titration of Meprin β62-595 (MβΔC) with different inhibitors. […]

Meprin β62–595 (MβΔC) [2] = biological target: T2, Meprin β62–595 (MβΔC); experiment: Proteolytic stability of concentrated Meprin β62–595 (MβΔC) with inhibitor, SDS-PAGE; conditions: 15 °C; for stability of Meprin β62–595 (MβΔC) with inhibitor added: SDS-PAGE; for degradation of Meprin β62–595 (MβΔC) on addition of inhibitor: up to 15 days, molar ratio 1:1.3 (actinonin), 1:1.2 (MWT-S-270)
Method: For reduction of potential heterogeneity, flexible glycosyl chains were removed by deglycosylation. The influence of different detergents and protein concentrations on the deglycosylation and stability of the enzyme has been investigated and analyzed by SDS-PAGE. […] To prevent degradation, the non-specific Meprin β inhibitor actinonin or the specific Meprin β inhibitor MWT-S-270 was added to the protein solution in a molar ratio of 1:1.3 and 1:1.2, respectively.
For the removal of surface-exposed glycosyl chains, a deglycosylation was performed prior to crystallization.
(MβΔC) before and after deglycosylation by EndoH under native conditions.
(1 picture or pasted object on this page, not shown here)

Meprin α = conditions: cited from earlier work
[3] = 40 mM Tris pH 8.0 (no NaCl), read-out: Ki

Row | SMILES | H (one-site fit) (Meprin β62–595 (MβΔC) [1]; Figure S7, -NaCl) | K (association constant, one-site fit) (Meprin β62–595 (MβΔC) [1]; Figure S7, -NaCl) | N (stoichiometry, one-site fit) (Meprin β62–595 (MβΔC) [1]; Figure S7, -NaCl) | S (one-site fit) (Meprin β62–595 (MβΔC) [1]; Figure S7, -NaCl) | Kd (Meprin β62–595 (MβΔC) [1]; 40 mM Tris pH 8.0 (no NaCl)) [nM] | ΔH (binding enthalpy) (Meprin β62–595 (MβΔC) [1]; 40 mM Tris pH 8.0 (no NaCl)) [kcal/mol] | −ΔS * T (binding entropy term) (Meprin β62–595 (MβΔC) [1]; 40 mM Tris pH 8.0 (no NaCl)) [kcal/mol] | stability of Meprin β62–595 (MβΔC) with inhibitor added (Meprin β62–595 (MβΔC) [2]) | degradation of Meprin β62–595 (MβΔC) on addition of inhibitor (Meprin β62–595 (MβΔC) [2]) | IC50 (Meprin β; 40 mM Tris pH 8.0 (no NaCl)) [nM] | Ki (Meprin β; [3]) [nM] | other results
1 | O=C(CN(Cc1cccc(C(=O)O)c1)Cc1cccc(C(=O)O)c1)NO [1 (270), 3-[[(3-Carboxyphenyl)methyl-[2-(hydroxyamino)-2-oxoethyl]amino]methyl]benzoic acid] | -3884 ±41.29 | 6.31E7 ±1.05E7 | 0.939 ±0.00648 | 22.9 | 16 | -3.884 | -6.939 | at least 15 days | prevented |  |  | IC50 (Meprin β; 150 mM NaCl, 40 mM Tris pH 8.0): 176 nM; Ki (Meprin β; 150 mM NaCl, 40 mM Tris pH 8.0, read-out: Ki): 198 nM; Ki (Meprin β; Ki, 40 mM Tris pH 8.0 (no NaCl)): 28.6 nM; H (one-site fit) (Meprin β62–595 (MβΔC) [1]; Figure S7, + NaCl): -4554 ±133,1; K (association constant, one-site fit) (Meprin β62–595 (MβΔC) [1]; Figure S7, + NaCl): 2,50E6 ±5,30E5; N (stoichiometry, one-site fit) (Meprin β62–595 (MβΔC) [1]; Figure S7, + NaCl): 1,13 ±0,0246; S (one-site fit) (Meprin β62–595 (MβΔC) [1]; Figure S7, + NaCl): 14,2; Kd (Meprin β62–595 (MβΔC) [1]; 150 mM NaCl, 40 mM Tris pH 8.0): 400 nM; ΔH (binding enthalpy) (Meprin β62–595 (MβΔC) [1]; 150 mM NaCl, 40 mM Tris pH 8.0): -4.554 kcal/mol; −ΔS * T (binding entropy term) (Meprin β62–595 (MβΔC) [1]; 150 mM NaCl, 40 mM Tris pH 8.0): -4.303 kcal/mol; IC50 (Meprin α; read-out: IC50 towards Meprin α): 16000 nM; stronger inhibition of Meprin β in comparison to Meprin α (Meprin α; selectivity Meprin β over Meprin α): more than 100 fold
2 | O=C(CN(Cc1cccc(C(=O)O)c1)Cc1ccc2c(c1)OCO2)NO [2 (416)] | -3966 ±57,47 | 4,21E6 ±6,18E5 | 1,06 ±0,0110 | 17,2 | 237 | -3.966 | -5.212 |  |  | 285 | 192 | 
3 | O=C(CN(Cc1ccccc1)Cc1cccc(C(=O)O)c1)NO [3 (396)] | -1138 ±32.08 | 1.34E6 ±2.22E5 | 1.09 ±0.0225 | 24.3 | 746 | -1.138 | -7.363 |  |  | 1280 | 1390 | 
4 | CCCCC[C@H](CC(=O)NO)C(=O)N[C@H](C(=O)N1CCC[C@H]1CO)C(C)C [actinonin, reference compound] |  |  |  |  |  |  |  | at least 15 days | prevented |  |  | 
